{
  "source": "patent US20230021483A1",
  "about": "“[…] […] METHOD AND CLASSIFICATION OF PHARMACEUTICAL COMPONENTS BY USING TRANSCRIPTOMES” (National Institutes of Biomedical Innovation, Health and …, priority 2016, published 2023)",
  "test_system": "preferentially upregulated genes in LV, SP, LN",
  "assay": "Z-score-based differential gene expression analysis (adjuvant group- or adjuvant-associated genes, 40 module mapping, TargetMine annotation)",
  "format": "in vivo, C57BL/6 mice",
  "settings": "ID, LV",
  "outline": "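Gene groups for each organ were built from combined z-score cutoffs across adjuvants, ranging from z>1 to z>3. Scores came from fold changes standardized per gene over the whole organ data set, with the three replicate z-scores added per adjuvant; sums above 3 marked preferential expression.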",
  "data": [
    {"molecule": "Nc1nc2c(ncn2[C@@H]2O[C@@H]3COP(=O)(O)O[C@H]4[C@@H](O)[C@H](n5cnc6c(=O)[nH]c(N)nc65)O[C@@H]4COP(=O)(O)O[C@H]3[C@H]2O)c(=O)[nH]1", "note": "[cdiGMP, Cyclic diguanylate monophosphate]", "values": [
      {"measurement": "Stat1 1450033_a_at (Group G1, Modules 20)", "setting": "sample x1", "value": 1.49},
      {"measurement": "Stat1 1450034_at (Group G1, Modules 20)", "setting": "sample x1", "value": 0.88},
      {"measurement": "Tdrd7 1426716_at (Group G1, Modules 20)", "setting": "sample x1", "value": 1.47},
      {"measurement": "Tor1aip2 1418115_s_at (Group G1, Modules 20)", "setting": "sample x1", "value": 1.81},
      {"measurement": "Tor1aip2 1418116_at (Group G1, Modules 20)", "setting": "sample x1", "value": 1.58},
      {"measurement": "Tor1aip2 1435526_at (Group G1, Modules 20)", "setting": "sample x1", "value": 0.94},
      {"measurement": "Trim12a 1437432_a_at (Group G1, Modules 20)", "setting": "sample x1", "value": 0.73},
      {"measurement": "Uba7 1426970_a_at (Group G1, Modules 20)", "setting": "sample x1", "value": 0.53},
      {"measurement": "Adar 1425405_a_at (Group G1, Modules 20)", "setting": "sample x2", "value": 1.67},
      {"measurement": "Adar 1434268_at (Group G1, Modules 20)", "setting": "sample x2", "value": 1.83},
      {"measurement": "Ddx58 1436562_at (Group G1, Modules 20)", "setting": "sample x2", "value": 0.88},
      {"measurement": "Ddx58 1456890_at (Group G1, Modules 20)", "setting": "sample x2", "value": 1.45},
      {"measurement": "Eif2ak2 1422005_at (Group G1, Modules 20)", "setting": "sample x2", "value": 1.38},
      {"measurement": "G3bp2 1421323_a_at (Group G1, Modules 20)", "setting": "sample x2", "value": 1.5},
      {"measurement": "Gm9706///Isg15 1431591_s_at (Group G1, Modules 20)", "setting": "sample x2", "value": 0.94},
      {"measurement": "H2-T10///H2-T22///H2-T9 1449875_s_at (Group G1, Modules 20)", "setting": "sample x2", "value": 1.04},
      {"measurement": "Ifih1 1426276_at (Group G1, Modules 20)", "setting": "sample x2", "value": 1.09},
      {"measurement": "Ifit1 1450783_at (Group G1, Modules 20)", "setting": "sample x2", "value": 2.28},
      {"measurement": "Ifit3 1449025_at (Group G1, Modules 20)", "setting": "sample x2", "value": 1.75},
      {"measurement": "Irf7 1417244_a_at (Group G1, Modules 20)", "setting": "sample x2", "value": 1.21},
      {"measurement": "Irgm1 1418825_at (Group G1, Modules 20)", "setting": "sample x2", "value": 1.29},
      {"measurement": "Mndal 1426906_at (Group G1, Modules 20)", "setting": "sample x2", "value": 2.45},
      {"measurement": "Pml 1448757_at (Group G1, Modules 20)", "setting": "sample x2", "value": 1.57},
      {"measurement": "Pml 1456103_at (Group G1, Modules 20)", "setting": "sample x2", "value": 1.3},
      {"measurement": "Rnf213 1455500_at (Group G1, Modules 20)", "setting": "sample x2", "value": 2.08},
      {"measurement": "Rsad2 1436058_at (Group G1, Modules 20)", "setting": "sample x2", "value": 2.41},
      {"measurement": "Shisa5 1423986_a_at (Group G1, Modules 20)", "setting": "sample x2", "value": 1.07},
      {"measurement": "Shisa5 1437503_a_at (Group G1, Modules 20)", "setting": "sample x2", "value": 1.12},
      {"measurement": "Stat1 1450033_a_at (Group G1, Modules 20)", "setting": "sample x2", "value": 1.44},
      {"measurement": "Stat1 1450034_at (Group G1, Modules 20)", "setting": "sample x2", "value": 1.02},
      {"measurement": "Tdrd7 1426716_at (Group G1, Modules 20)", "setting": "sample x2", "value": 1.15},
      {"measurement": "Tor1aip2 1418115_s_at (Group G1, Modules 20)", "setting": "sample x2", "value": 1.67},
      {"measurement": "Tor1aip2 1418116_at (Group G1, Modules 20)", "setting": "sample x2", "value": 1.33},
      {"measurement": "Tor1aip2 1435526_at (Group G1, Modules 20)", "setting": "sample x2", "value": 0.83},
      {"measurement": "Trim12a 1437432_a_at (Group G1, Modules 20)", "setting": "sample x2", "value": 0.83},
      {"measurement": "Uba7 1426970_a_at (Group G1, Modules 20)", "setting": "sample x2", "value": 1.46},
      {"measurement": "Adar 1425405_a_at (Group G1, Modules 20)", "setting": "sample x3", "value": 1.66},
      {"measurement": "Adar 1434268_at (Group G1, Modules 20)", "setting": "sample x3", "value": 2.95},
      {"measurement": "Ddx58 1436562_at (Group G1, Modules 20)", "setting": "sample x3", "value": 1.49},
      {"measurement": "Ddx58 1456890_at (Group G1, Modules 20)", "setting": "sample x3", "value": 2.07},
      {"measurement": "Eif2ak2 1422005_at (Group G1, Modules 20)", "setting": "sample x3", "value": 1.93},
      {"measurement": "G3bp2 1421323_a_at (Group G1, Modules 20)", "setting": "sample x3", "value": 2.34},
      {"measurement": "Gm9706///Isg15 1431591_s_at (Group G1, Modules 20)", "setting": "sample x3", "value": 2.02},
      {"measurement": "H2-T10///H2-T22///H2-T9 1449875_s_at (Group G1, Modules 20)", "setting": "sample x3", "value": 2.06},
      {"measurement": "Ifih1 1426276_at (Group G1, Modules 20)", "setting": "sample x3", "value": 1.65},
      {"measurement": "Ifit1 1450783_at (Group G1, Modules 20)", "setting": "sample x3", "value": 2.4},
      {"measurement": "Ifit3 1449025_at (Group G1, Modules 20)", "setting": "sample x3", "value": 2.34},
      {"measurement": "Irf7 1417244_a_at (Group G1, Modules 20)", "setting": "sample x3", "value": 1.92},
      {"measurement": "Irgm1 1418825_at (Group G1, Modules 20)", "setting": "sample x3", "value": 1.81},
      {"measurement": "Mndal 1426906_at (Group G1, Modules 20)", "setting": "sample x3", "value": 2.76},
      {"measurement": "Pml 1448757_at (Group G1, Modules 20)", "setting": "sample x3", "value": 2.16},
      {"measurement": "Pml 1456103_at (Group G1, Modules 20)", "setting": "sample x3", "value": 2.58},
      {"measurement": "Rnf213 1455500_at (Group G1, Modules 20)", "setting": "sample x3", "value": 3.16},
      {"measurement": "Rsad2 1436058_at (Group G1, Modules 20)", "setting": "sample x3", "value": 2.39},
      {"measurement": "Shisa5 1423986_a_at (Group G1, Modules 20)", "setting": "sample x3", "value": 1.57},
      {"measurement": "Shisa5 1437503_a_at (Group G1, Modules 20)", "setting": "sample x3", "value": 1.32},
      {"measurement": "Stat1 1450033_a_at (Group G1, Modules 20)", "setting": "sample x3", "value": 2.11},
      {"measurement": "Stat1 1450034_at (Group G1, Modules 20)", "setting": "sample x3", "value": 2.07},
      {"measurement": "Tdrd7 1426716_at (Group G1, Modules 20)", "setting": "sample x3", "value": 2.22}
    ]}
  ]
}
